Reference: PMC3371050, “Characterisation of a Novel White Laccase from the Deuteromycete Fungus Myrothecium verrucaria NF-05 and Its Decolourisation of Dyes” (PLoS ONE, 2012)
Where two headings read alike, the source gives them in different places. Values belong to the compound of their own block, whether it stands above or below them.

What was measured:
Settings in all cases: 0.2 M citric acid pH 4.0, 30°C
[1] = test system: white laccase from Myrothecium verrucaria NF-05
[2] = test system: T1, white laccase from Myrothecium verrucaria NF-05; assay: oxidation at […] nm, Lineweaver-Burk; format: biochemical, Albifimbria verrucaria
T1 construct: native extracellular enzyme purified from culture medium; about 66 kDa monomer; 3 Cu and 1 Fe per molecule; no bilirubin oxidase activity detected in the fermentation liquid

[3] = test system: T1, white laccase from Myrothecium verrucaria NF-05; assay: oxidation at […] nm, Lineweaver-Burk; format: biochemical, Albifimbria verrucaria; remark: listed apart in the source
[4] = test system: white laccase from Myrothecium verrucaria NF-05; remark: listed apart in the source

Km [1]: 85.9 µM
Compound: CCn1c(=NN=c2sc3cc(S(=O)(=O)O)ccc3n2CC)sc2cc(S(=O)(=O)O)ccc21 [ABTS, 2,2′-azinobis-(3-ethylbenzothiazoline-6-sulphonic acid)]

Compound: Oc1ccccc1O [catechol]
Km [2]: 329 µM

Km [3]: 312 µM
Compound: COc1ccccc1O [guaiacol]

Km [4]: 2090 µM
Compound: Oc1ccc(O)cc1 [hydroquinone]
